Measured values from US6103709A (priority 1998, dated 2000).
Blank lines part the entries; values can stand above or below the compound they belong to.

Experiments:
[1] = test system: chloride channels in ROS 17/2.8 cells; conditions: 1 nM HL in the bath; 1α,25(OH)2 D3 5 nM or less; listed as 1β,25(OH)2 D3
Experimental: In each case, at least a 3-min period was allowed after the addition of the analog to the bath for currents to reach a stable amplitude value. […] Anion currents were isolated from inward Ba^2+ currents after blockade of Ca^2+ channels with 100 μM Cd^2+.

[2] = test system: MAP-kinase p42^mapk in NB4 cells; test: MAP-kinase activation (p42mapk phosphorylation) in NB4 cells; assay type: cell-based, human
Experimental: In order to determine whether MAP-kinase phosphorylation is specific and is altered by 1α,25(OH)2 D3, the time-dependent effects of 1α,25(OH)2 D3 on p42^mapk phosphorylation was examined using human acute promyelocytic leukemia cells (NB4). In this study, the NB4 cells, cultured in 10% charcoal-stripped fetal calf serum (FCS) medium, were treated with 1α,25(OH)2 D3 at 10^-8 M for various time periods. Cells were then extracted and the phosphorylated MAP-kinase was immunoprecipitated with anti-phosphotyrosine antibody and further analyzed by Western blot using the antibodies against p42^mapk.
The lysate was further processed for anti-phosphotyrosine immunoprecipitation. […] After transferring the proteins to the PVDF membrane, the membrane was further incubated with primary anti-p42^mapk antibodies that were (+) or were not (-) pre-exposed to MAP-kinase peptide.
This example describes assays used for measurement of MAP-kinase activity in NB4 cells.
Cell culture of NB4 cells
The cell line is characterized by a translocation involving chromosomes 15 and 17, which is typical of the classical form of APL-M3 in the French-American-British [FAB] classification. NB4 cells were cultured in DMEM/F12 medium with 10% FCS at 5% CO2 balanced air and were routinely passaged as suspension cultures and only passages 8 to 20 were used for each assay.
Immunoprecipitation of Tyrosine-Phosphorylated Proteins
NB4 cells were cultured in 60-mm diameter dishes and treated with 1,25(OH)2 D3 or analogs in 4 ml of DMEM/F12 containing 10% charcoal-stripped FCS.
Insoluble material was removed in a microcentrifuge at 14,000 rpm for 10 min. Protein concentration was determined with a protein assay kit (Bio-Rad Lab, Hercules, Calif.). For immunoprecipitation, the supernatant was incubated with bead-conjugated monoclonal anti-phosphotyrosine antibody overnight at 4° C. The immunoprecipitates containing the tyrosine-phosphorylated proteins were washed four times with freshly-prepared RIPA buffer and further eluted with 2× Laemmli gel buffer.
At this point, the samples were either stored at -20° C. for further use or processed via Western blots. Equal loading of MAP-kinase protein was determined by running the Western blots using polyclonal anti-p42^mapk antibody. For this purpose, samples were aliquoted from each cell extract before immunoprecipitation.
SDS Gel Electrophoresis and Western blot
The membrane was further immunoblotted using a rabbit anti-p42^mapk polyclonal antibody overnight at 4° C. followed by incubation with secondary horseradish peroxidase-conjugated mouse anti-rabbit antibody for 1 hr at 25° C. The phosphorylated MAP-kinase bands were then visualized by enhanced chemiluminescence (ECL). A Ultrascan LX Laser Densitometer (LKB, Bromma, Sweden) scanned the density of the immuno-phosphoprotein bands. The results were normalized by protein loading and further plotted as percent of control of the band density.

[3] = test system: VDRmem; test: Rapid response (summary classification); conditions: Yes/No, Tables 1 and 6
From the text: (§1) Table 6 identifies biological properties, such as genomic response, rapid response, agonist or antagonist function, binding of the analog to the vitamin binding protein (expressed as RCI), binding to the nuclear 1α,25(OH)2 D3 receptor (expressed as RCI) rapid response (expressed as % transcaltachia the rapid hormonal stimulation of intestinal calcium absorption) the classic vitamin D responses such as intestinal Ca^2+ absorption (ICA) and bone Ca^2+ mobilizing activity (BCM) determined in vivo in a vitamin D-deficient chick, and cell differentiation (expressed as % ED50), an assessment of the ability to promote the nuclear response of cell differentiation.

[4] = test system: HL-60 cells; test: Cell differentiation assay (NBT reduction); assay type: cell-based
From the text: The cell differentiation assay is used for a determination of relative potency of the analog vis-a-vis the potency of the reference compound 1α,25(OH)2 D3 in promoting the cell differentiation or inhibiting the cell proliferation. The results of the cell differentiation assay are expressed as the effective dose-50 (ED-50) which is defined as 50% of the concentration required for a maximal response.
Cell Differentiation Assay
After 4 days of culture in a humidified atmosphere of 5% CO2 in air at 37° C., the dishes were shaken to loosen any adherent cells. All cells were then assayed for differentiation by NBT reduction assay and for proliferation by [^3 H]thymidine incorporation.
Superoxide production was assayed by nitro blue tetrazolium-reducing activity as follows.
The percentage of cells containing black formazan deposits was determined using a hemacytometer.

[5] = test system: rapid responses (VDRmem); test: Antagonist function (summary classification); conditions: Yes/No, Tables 1 and 6
From the text: as §1

[6] = target: T1, nuclear receptor for 1α,25(OH)2 D3 [VDRnuc] (Gallus gallus, UniProt O42392); test: Relative Competitive Index (steroid competition) assay, nuclear receptor VDRnuc; assay type: binding, chick; set-up: key to Nuclear 1α,25-D Receptor (RCI): % relative to 1α,25(OH)2D3 binding (RCI = 100%)
T1 construct: VDRnuc receptor preparation from chick intestine mucosa; from tissue; host or cells: chick intestinal mucosa
T1 sequence (O42392 1-451): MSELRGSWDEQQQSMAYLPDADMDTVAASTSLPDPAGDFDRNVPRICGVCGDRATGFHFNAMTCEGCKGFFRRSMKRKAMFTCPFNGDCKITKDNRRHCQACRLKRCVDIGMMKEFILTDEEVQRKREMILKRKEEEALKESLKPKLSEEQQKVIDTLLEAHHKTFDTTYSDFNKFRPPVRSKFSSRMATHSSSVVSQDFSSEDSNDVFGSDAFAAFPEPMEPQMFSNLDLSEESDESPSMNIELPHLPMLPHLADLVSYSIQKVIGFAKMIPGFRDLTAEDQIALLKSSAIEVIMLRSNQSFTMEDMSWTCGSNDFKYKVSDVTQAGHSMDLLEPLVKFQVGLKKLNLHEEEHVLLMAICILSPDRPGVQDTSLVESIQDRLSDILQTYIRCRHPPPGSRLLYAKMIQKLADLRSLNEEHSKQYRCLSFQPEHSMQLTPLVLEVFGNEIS
Experimental: The ability of analogs to mediate genomic responses are directly determined by the ability of the analog in question to bind to the nuclear receptor for 1α,25(OH)2 D3 [VDRnuc ]. This ability is detected by the assay measuring Relative Competitive Index (RCI).
The assay is based upon the principles of a steroid competition assay. A fixed amount of [^3 H]1α,25(OH)2 D3 is mixed with increasing amounts of competitive analogs or the natural hormone, 1α,25(OH)2 D3, and incubated with a VDRnuc receptor preparation from chick intestine mucosa.
Ligand Receptor Competition Assay
This example describes a ligand receptor competitive assay used for determination of an analog's relative ability to bind to VDRnuc expressed as relative competitive index (RCI).
The relative affinity of nonradioactive 1α,25(OH)2 D3 and each analog to compete with [^3 H]1α,25(OH)2 D3 for binding to the VDRnuc of NB4 cells was carried out in vitro. The NB4 cells were collected from a fast growing stage and the cellular VDRnuc of 1α,25(OH)2 D3 were extracted from KTED buffer containing 10 mM Tris-HCl, pH 7.4, 300 mM KCl, 1 mM EDTA and 5 mM DTT. After sonication, the cell extract was further centrifuged at 500× g for 10 min. The supernatant was collected for use in a ligand-receptor binding assay.
In this assay, increasing concentrations (10^-10 to 10^-6 M) of nonradioactive 1α,25(OH)2 D3 or the tested analogs were incubated with NB4 cell extracts in the presence of a fixed saturating amount of 1 pmole of [^3 H]1α,25(OH)2 D3. The reciprocal of the percentage of maximal binding of [^3 H]1α,25(OH)2 D3 was then calculated and plotted as a function of the relative analog concentration versus [^3 H]1α,25(OH)2 D3. […] The competitive index value for each analog is then normalized to the competitive index value of the […], thereby generating the value of Relative Competitive Index (RCI) where the RCI for 1α,25(OH)2 D3 is defined as 100%.
The full description of the assay is found in Methods in Enzymology: Vitamins and Co-Enzymes, Vol. 67, 494-500 , Academic Press, NY(1980); Biochem. Biophys. Res. Commun., 91: 827-834 (1979); and Endocrinology, 139(2): 457-465 (1998).

[7] = test system: VDRnuc; test: Genomic response (summary classification); conditions: Yes/No, Tables 1 and 6
From the text: as §1

[8] = test system: intestinal Ca2+ transport in perfused chick duodena (transcaltachia); test: Transcaltachia assay (rapid stimulation of 45Ca2+ transport in perfused duodena); conditions: 1α,25(OH)2 D3 = 100
Experimental: Duodenal loops from normal, vitamin D-replete chicks were lumenally perfused with ^45 Ca^2+ (5 uCi/ml of buffer). To establish basal transport rates, celiac artery of controls were perfused with control medium for the first 20 min. The duodena were then either re-exposed to control medium containing the vehicle ethanol (0.005%, final concentration) through the celiac artery, or vascularly perfused with 300 pM or 650 pM agonist analogs JM or JN or with 650 pM of a control reference compound 1α,25(OH)2 D3. The venous effluent was collected at 2 min intervals for liquid scintillation spectrophotometry of the ^45 Ca^2+. […] Values represent mean ±SEM for n=4 in each group.
The data shown in FIG. 13 are the mean ±SEM from 4-5 duodena. […] Open circles represent the negative control receiving no treatment with 1α,25(OH)2 D3 or analog. […] Data represent the ratio of treated to basal values ±SEM extracted from a time-course plot (as in panel A) at 32 minutes.
This example describes the assay used for testing rapid response transcaltachia described in J. Biol. Chem, 268: 13811-13819 (1993).
White Leghorn cockerels (Hyline International, Lakeview, Calif.) were obtained on the day of hatch and maintained on a vitamin D-supplemented diet (1.0% calcium and 1.0% phosphorus; O. H. Kruse Grain and Milling, Ontario, Calif.) for 5-6 weeks to prepare normal vitamin D3 -replete chicks for use in the transcaltachia studies.
Measurements of ^45 Ca^2+ transport were carried out in perfused chick duodena. Normal vitamin D-replete chicks weighing approximately 500 g were anesthetized with 0.3 ml per 100 g Chloropent (Fort Dodge, Iowa), and the duodenal loop was surgically exposed. The celiac vein and blood vessels branching off from the celiac artery were ligated before cannulation of the celiac artery itself, and vascular perfusion was immediately initiated. Both the celiac artery and vein of the duodena were perfused with modified Grey's balanced salt solution (GBSS) +0.9 mM Ca which was oxygenated with 95% O2 and 5% CO2. A basal transport rate was established by perfusion with control medium for 20 minutes after the intestinal lumen was filled with ^45 Ca^2+. The tissue was then exposed to 1α,25(OH)2 D3 or analogs or reexposed to control medium for an additional 40 minutes. The vascular perfusate was collected at 2 min intervals during the last 10 min of the basal and during the entire treatment period. Duplicate 100 μl aliquots were taken for determination of the ^45 Ca^2+ levels by liquid scintillation spectrometry.

SMILES: C=C1/C(=C\C=C2/CCC[C@]3(C)[C@@H]([C@H](C)CCCC(C)(C)O)CC[C@@H]23)C[C@@H](O)C[C@H]1O [Analog HL, 1β,25-dihydroxyvitamin D3]
antagonism of 1α,25(OH)2 D3-stimulated chloride channel opening [1]: significantly reduced

SMILES: CC1=C(/C=C\C2=CCC[C@]3(C)[C@@H]([C@H](C)CCCC(C)(C)O)CC[C@@H]23)C[C@@H](O)C[C@@H]1O [HF]
activation of MAP-kinase versus 1α,25(OH)2 D3 ([2]; 1 minute): more than 1α,25(OH)2 D3
activation of MAP-kinase versus 1α,25(OH)2 D3 ([2]; 5 minute): only slightly less active

Binding to VDRnuc relative to 1α,25(OH)2 D3 (RCI) ([6]; 1α,25(OH)2 D3 = 100%, FIG. 8: chick intestine mucosa): 25%
Nuclear 1α,25-D Receptor (RCI) ([6]; RCI of 1α,25(OH)2 D3 = 100): 25
SMILES: C=C1/C(=C\C=C2/CCC[C@]3(CO)[C@@H]([C@H](C)CCCC(C)(C)O)CC[C@@H]23)C[C@@H](O)C[C@@H]1O [HS]
Rapid Response [3]: Yes
potency at promoting cell differentiation versus 1α,25(OH)2 D3 [4]: about twenty times more potent
Antagonist [5]: No
Genomic Response [7]: Yes

SMILES: CC1=C(/C=C/C2=CCC[C@]3(C)[C@@H]([C@H](C)CCCC(C)(C)O)CC[C@@H]23)C[C@@H](O)C[C@@H]1O [JB]
Rapid Trans-Caltachia, relative to 1α,25(OH)2 D3 [8]: smaller than 5%
